Values quoted from earlier work as cited in PubChem BioAssay AID1259410 (Chemical Carcinogenesis Research Information System (CCRIS), 2018).

Test system: rodent tumor promotion studies, tumor incidence
Assay: CCRIS tumor promotion studies

CC1(OO)C=C(C(C)(C)C)C(=O)C(C(C)(C)C)=C1
outcome (Carcinogen: 7,12-DIMETHYLBENZ[A]ANTHRACENE, 57-97-6, Doses [Carcinogen]: 20 NMOL IN 200 µL ACETONE ONCE, Doses [Promoter]: 0, 8 UMOL 2/WK FOR 50 WK BEGINNING 10 D POST CARCINOGEN DOSE (STUDY DURATION: 52 WK), Route [Carcinogen]: DERMAL, Route [Promoter]: DERMAL, Species: MOUSE, Strain/Sex: SENCAR/FEMALE): skin: papilloma or carcinoma | outcome (Carcinogen: 7,12-DIMETHYLBENZ[A]ANTHRACENE, 57-97-6, Doses [Carcinogen]: 20 NMOL IN 200 µL ACETONE ONCE, Doses [Promoter]: 0, 20 UMOL 2/WK FOR 50 WK BEGINNING 10 D POST CARCINOGEN DOSE (STUDY DURATION: 52 WK), Route [Carcinogen]: DERMAL, Route [Promoter]: DERMAL, Species: MOUSE, Strain/Sex: SENCAR/FEMALE): skin: papilloma or carcinoma

Clc1ccc(-c2ccc(Cl)c(Cl)c2)cc1Cl
outcome (Carcinogen: 7,12-DIMETHYLBENZ[A]ANTHRACENE, 57-97-6, Doses [Carcinogen]: 10 MG IN 0.5 ML CORN OIL ONCE, Doses [Promoter]: 0, 10 MG/KG BW ONCE AT TIME OF CARCINOGEN DOSE THEN 500 UG/G OF FAT IN DIET FOR 1 WK ADMINISTERED TO RATS FED HIGH-FAT (, Route [Carcinogen]: GAVAGE, Route [Promoter]: GAVAGE, ORAL, Species: RAT, Strain/Sex: SPRAGUE-DAWLEY/FEMALE): mammary gland: tumor | outcome (Carcinogen: 7,12-DIMETHYLBENZ[A]ANTHRACENE, 57-97-6, Doses [Carcinogen]: 10 MG IN 0.5 ML CORN OIL ONCE, Doses [Promoter]: 0, 10 MG/KG BW ONCE AT TIME OF CARCINOGEN DOSE THEN 500 UG/G OF FAT IN DIET FOR 1 WK ADMINISTERED TO RATS FED LOW FAT (5, Route [Carcinogen]: GAVAGE, Route [Promoter]: GAVAGE, ORAL, Species: RAT, Strain/Sex: SPRAGUE-DAWLEY/FEMALE): mammary gland: tumor

O=NO
outcome (Carcinogen: 1,2-DIMETHYLHYDRAZINE [540-73-8], Doses [Carcinogen]: 8 MG/KG, Doses [Promoter]: 50, 500 MG, Route [Promoter]: INJECTION, Species: MOUSE, Strain/Sex: (C57B1 X CBA)/MALE): liver: hepatocarcinoma, hepatic hemangioendothelioma; kidney: renal adenoma; inc | outcome (Carcinogen: Diethyl nitrosamine (DEN), 55-18-5 and dimethylhydrazine (DMH), 30260-66-3, Carcinogen: Diethyl nitrosamine (DEN), 55-18-5 and dimethylhydrazine (DMH), 30260-66-3, Doses [Carcinogen]: DEN, 200 mg/kg once at -3 days, DMH, 40 mg/kg 4 injections between day 0 and wk 2, Doses [Promoter]: 0, 0.1, 0.2% in drinking water from week 2 to 29, study duration 29 wk, Doses [Promoter]: 0, 0.1, 0.2% in drinking water from week 2 to 29, study duration 29 wk, Route [Carcinogen]: Intraperitoneal (DEN) and subcutaneous (DMH), Route [Promoter]: Oral, Species: Rat, Strain/Sex: F344/Du Crj (20/group)): liver: hepatocellular adenoma and carcinoma. colon adenoma and carcinoma. incide | outcome (Carcinogen: N-METHYL-N'-NITRO-N-NITROSOGUANIDINE, 70-25-7, Doses [Carcinogen]: 150 MG/KG BW IN DMSO:WATER (1:1) ONCE, Doses [Promoter]: 0, 0.3% IN DRINKING WATER BEGINNING 1 WK POST CARCINOGEN DOSE (STUDY DURATION: 52 WK), Route [Carcinogen]: GAVAGE, Route [Promoter]: ORAL, Species: RAT, Strain/Sex: F344/MALE): forestomach: papilloma, squamous cell carcinoma | outcome (Carcinogen: N-bis(2-hydroxypropyl)nitrosamine (DHPN) (53609-64-6), Doses [Carcinogen]: 0.1% (w/v) in drinking water for 3 wk, then surgery for acid reflux esophagitis, study duration 34 wk, Doses [Promoter]: 0 (basal diet), 0.2% sodium nitrite, 1% ascorbic acid with 0.2% sodium nitrite, study duration 32 wk after first promote, Doses [Promoter]: 0 (basal diet), 0.2% sodium nitrite, 1% ascorbic acid with 0.2% sodium nitrite, study duration 32 wk after first promote, Route [Carcinogen]: Oral, Route [Promoter]: Oral, Species: Rat, Strain/Sex: F344/Male (24/group)): esophagus (p1-p4): papilloma; significant only for combined treatment in p4 segm | outcome (Carcinogen: N-methyl-N'-nitro-N-nitrosoguanidine (70-25-7), Doses [Carcinogen]: 0.01% in drinking water for 10 wk for initiation of glandular stomach tumors, 100 mg/kg intragastrically after 16 hr st, Doses [Promoter]: 0.05%, 0.1%, or 0.2% in drinking water from wk 11 to end of study in combination with 0.1% or 1.0% vitamin C in diet (, Route [Carcinogen]: Oral and Intragastric, Route [Promoter]: Oral, Species: Rat, Strain/Sex: F344/Male (15/15)/(14/15)(15/15)(15/15)(15/15)(15/15)(14/15)): forestomach: papilloma, squamous cell carcinoma increase in incidence and/or sev | outcome (Carcinogen: URETHANE, 51-79-6, Doses [Carcinogen]: 0.5 MG/G BW 1/WK FOR 2 WK, Doses [Promoter]: 0, 50 MG/L IN DRINKING WATER FOR THE DURATION OF STUDY BEGINNING 4 WK PRIOR TO CARCINOGEN TREATMENT (STUDY DURATION: 210, Route [Carcinogen]: INTRAPERITONEAL, Route [Promoter]: ORAL, Species: MOUSE, Strain/Sex: A/SNELL/FEMALE): lung: adenoma | outcome (Carcinogen: URETHANE, 51-79-6, Doses [Carcinogen]: 0.5 MG/G BW 1/WK FOR 2 WK, Doses [Promoter]: 0, 50 MG/L IN DRINKING WATER FOR THE DURATION OF STUDY BEGINNING 4 WK PRIOR TO CARCINOGEN TREATMENT (STUDY DURATION: 210, Route [Carcinogen]: INTRAPERITONEAL, Route [Promoter]: ORAL, Species: MOUSE, Strain/Sex: C57BL X CBA/ FEMALE): lung: adenoma | outcome (Carcinogen: URETHANE, 51-79-6, Doses [Carcinogen]: 0.5 MG/G BW/WK FOR 2 WK, Doses [Promoter]: 0, 50, 500 MG/L IN DRINKING WATER FOR THE DURATION OF STUDY BEGINNING 4 WK PRIOR TO CARCINOGEN TREATMENT (STUDY DURATION, Doses [Promoter]: 0, 50, 500 MG/L IN DRINKING WATER FOR THE DURATION OF STUDY BEGINNING 4 WK PRIOR TO CARCINOGEN TREATMENT (STUDY DURATION, Route [Carcinogen]: INTRAPERITONEAL, Route [Promoter]: ORAL, Species: MOUSE, Strain/Sex: A/SNELL): lung: adenoma | outcome (Carcinogen: URETHANE, 51-79-6, Doses [Carcinogen]: 0.5 MG/G BW/WK FOR 2 WK, Doses [Promoter]: 0, 50, 500 MG/L IN DRINKING WATER FOR THE DURATION OF STUDY BEGINNING 4 WK PRIOR TO CARCINOGEN TREATMENT (STUDY DURATION, Doses [Promoter]: 0, 50, 500 MG/L IN DRINKING WATER FOR THE DURATION OF STUDY BEGINNING 4 WK PRIOR TO CARCINOGEN TREATMENT (STUDY DURATION, Route [Carcinogen]: INTRAPERITONEAL, Route [Promoter]: ORAL, Species: MOUSE, Strain/Sex: C57BLXCBA): lung: adenoma

O=C1c2cccc(O)c2C(=O)c2c(O)cccc21
outcome (Carcinogen: 1,2-DIMETHYLHYDRAZINE, 540-73-8, Doses [Carcinogen]: 20 MG/KG BW 1/WK FOR 12 WK, Doses [Promoter]: 0, 0.2% IN DIET FOR 42 WK BEGINNING POST CARCINOGEN TREATMENT (STUDY DURATION: 54 WK), Route [Carcinogen]: SUBCUTANEOUS, Route [Promoter]: ORAL, Species: MOUSE, Strain/Sex: ICR/CD-1/MALE): colon: tumor; liver: tumor

Cc1ccc(O)c(C(C)(C)C)c1
outcome (Carcinogen: N-BUTYL-N-(4-HYDROXYBUTYL)NITROSAMINE, 3817-11-6, Doses [Carcinogen]: 0.5% IN DRINKING WATER FOR 4 WK, Doses [Promoter]: 0, 1% IN DIET FOR 32 WK BEGINNING 3 D POST CARCINOGEN TREATMENT (STUDY DURATION: 36 WK), Route [Carcinogen]: ORAL, Route [Promoter]: ORAL, Species: RAT, Strain/Sex: F344/MALE): bladder: carcinoma, papilloma

COS(C)(=O)=O
outcome (Carcinogen: N-METHYL-N-NITROSOUREA, 684-93-5, Doses [Carcinogen]: 0.3 MG IN CITRIC ACID PHOSPHATE BUFFER ONCE FOR 30 MIN, Doses [Promoter]: 0, 2.5 MG IN BUFFER 1/2 WK FOR 12 WK BEGINNING 14 D POST CARCINOGEN (STUDY DURATION: 2 YR), Route [Carcinogen]: INTRAVESICULAR, Route [Promoter]: INTRAVESICULAR, Species: RAT, Strain/Sex: F344/FEMALE): bladder: papillary transitional cell carcinoma

CCCCN(CCCCO)N=O
outcome (Carcinogen: DIETHYLNITROSAMINE, 55-18-5, N-METHYLNITROSOUREA, 684-93-5, DIHYDROXY-DI-N- PROPYLNITRASAMINE, 53609-64-6, Carcinogen: DIETHYLNITROSAMINE, 55-18-5, N-METHYLNITROSOUREA, 684-93-5, DIHYDROXY-DI-N- PROPYLNITRASAMINE, 53609-64-6, Doses [Carcinogen]: 100 MG/KG/BW DEN ONCE AT BEGINNING OF STUDY THEN 20 MG/KG/BW MNU ONCE ON D 2, 5, 8 AND 11 OF STUDY FOLLOWED BY 0.1% DHPN, Doses [Promoter]: 0, 0.1% IN DRINKING WATER BEGINNING POST CARCINOGEN TREATMENT AND CONTINUING FOR DURATION OF STUDY (STUDY DURATION: 20 W, Route [Carcinogen]: INTRAPERITONEAL, INTRAPERITONEAL, ORAL, Route [Carcinogen]: INTRAPERITONEAL, INTRAPERITONEAL, ORAL, Route [Promoter]: ORAL, Species: RAT, Strain/Sex: F344/MALE): urinary bladder: transitional cell papilloma | outcome (Carcinogen: N-BIS(2-HYDROXYPROPYL)NITROSAMINE, 53609-64-6, N-ETHYL-N-HYDROXYETHYLNITROSAMINE, 13147-25-6, 3,2'-DIMETHYL-4-AMINOB, Carcinogen: N-BIS(2-HYDROXYPROPYL)NITROSAMINE, 53609-64-6, N-ETHYL-N-HYDROXYETHYLNITROSAMINE, 13147-25-6, 3,2'-DIMETHYL-4-AMINOB, Doses [Carcinogen]: 1000 MG/KG IP IN SALINE ON DAY 1 AND 4, 1500 MG/KG IG IN DISTILLED WATER ON DAY 8 AND 11, 75 MG/KG SC IN CORN OIL ON D, Doses [Carcinogen]: 1000 MG/KG IP IN SALINE ON DAY 1 AND 4, 1500 MG/KG IG IN DISTILLED WATER ON DAY 8 AND 11, 75 MG/KG SC IN CORN OIL ON D, Doses [Promoter]: 0, 0.1% IN DRINKING WATER BEGINNING 1 WK POST LAST CARCINOGEN DOSE AND CONTINUING FOR 12 WK (STUDY DURATION: 16 WK), Route [Carcinogen]: INTRAPERITONEAL, GAVAGE, SUBCUTANEOUS, Route [Carcinogen]: INTRAPERITONEAL, GAVAGE, SUBCUTANEOUS, Route [Promoter]: ORAL, Species: RAT, Strain/Sex: F344/MALE): urinary bladder: tumor
